Laboratory results reported in patent publication US7208500B2, “Thienopyridine-phenylacetamides and their derivatives useful as new anti-angiogenic agents” (Agouron Pharmaceuticals, Inc., priority 2003, dated 2007).

What was measured:
[1] = target: T1, FGF-R1 intracellular kinase domain (Homo sapiens, UniProt P11362, C488A/C584S/L457V); experiment: FGF-R spectrophotometric assay; format: biochemical; conditions: 50 nM test compound; read-out: FGF-P (% inh @ 50 nM)
T1 construct: starting from the endogenous methionine residue 456 to glutamate 766; made in house; host or cells: baculovirus vector expression system
T1 sequence (P11362 456-766 L457V/C488A/C584S): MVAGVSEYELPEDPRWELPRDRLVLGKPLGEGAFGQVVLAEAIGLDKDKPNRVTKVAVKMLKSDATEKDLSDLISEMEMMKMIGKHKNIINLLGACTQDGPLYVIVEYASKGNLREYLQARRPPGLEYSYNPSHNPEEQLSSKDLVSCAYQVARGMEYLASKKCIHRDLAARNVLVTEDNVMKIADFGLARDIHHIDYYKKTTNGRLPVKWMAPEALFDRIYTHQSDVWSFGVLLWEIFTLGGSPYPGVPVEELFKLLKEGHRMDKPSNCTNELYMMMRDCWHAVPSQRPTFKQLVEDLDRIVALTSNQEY
Summary of the method: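 Human FGF-R1 kinase domain (Met456–Glu766, L457V/C488A/C584S) expressed in baculovirus. Spectrophotometric kinase assay run as for VEGF-R2 with 50 nM FGF-R, 2 mM ATP and 15 mM poly(E4Y1).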

[2] = target: T2, unphosphorylated VEGF-R2D50 (FLVK), cytosolic domain of human VEGF-R2 (Homo sapiens, UniProt P35968, DEL940-989/E990V); experiment: VEGF-R2 coupled spectrophotometric assay (FLVK); format: biochemical
T2 construct: VEGF-R2D50 contains residues 806–939 and 990–1171; made in house; host or cells: baculovirus/insect cell system
T2 sequence (P35968 with tags, fused parts or gaps DEL940-989/E990V limits assumed): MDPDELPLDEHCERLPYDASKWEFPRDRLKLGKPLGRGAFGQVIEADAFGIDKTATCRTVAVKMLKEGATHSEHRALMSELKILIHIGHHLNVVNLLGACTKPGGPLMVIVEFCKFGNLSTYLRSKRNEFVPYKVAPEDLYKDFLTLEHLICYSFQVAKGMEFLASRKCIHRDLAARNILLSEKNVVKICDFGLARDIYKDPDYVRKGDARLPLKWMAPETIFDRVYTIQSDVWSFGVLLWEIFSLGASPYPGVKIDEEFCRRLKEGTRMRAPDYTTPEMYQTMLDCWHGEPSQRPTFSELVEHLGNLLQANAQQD
Summary of the method: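 Unphosphorylated VEGF-R2D50 (5–40 nM, baculovirus-expressed) was assayed with 3 mM ATP, 20 mM poly(E4Y1), 60 mM MgCl2 and 2 mM MnCl2 in HEPES pH 7.5. ADP formation was coupled via PK/LDH to NADH oxidation and followed at A340. Ki came from activity at varying compound concentrations fitted by the Morrison equation.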

[3] = tested on: human umbilical vein endothelial cells (HUVEC); experiment: HUVEC + VEGF proliferation assay; format: cell-based; conditions: VEGF-stimulated proliferation, final VEGF 6 ng/mL, 72 hours, MTT
Method: This assay determines the ability of a test compound to inhibit the growth factor-stimulated proliferation of human umbilical vein endothelial cells (“HUVEC”). HUVEC cells (passage 3–4, Clonetics, Corp.) were thawed into EGM2 culture medium (Clonetics Corp) in T75 flasks. Fresh EGM2 medium was added to the flasks 24 hours later. Four or five days later, cells were exposed to another culture medium (F12K medium supplemented with 10% fetal bovine serum (FBS), […] endothelial cell growth supplement (ECGS), and 0.1 mg/mL heparin). Exponentially-growing HUVEC cells were used in experiments thereafter. Ten to twelve thousand HUVEC cells were plated in 96-well dishes in […] of rich, culture medium (described above). The cells were allowed to attach for 24 hours in this medium. The medium was then removed by aspiration and […] of starvation media (F12K+1% FBS) was added to each well. After 24 hours, […] of test agent dissolved in 1% DMSO in starvation medium or this vehicle alone was added into each treatment well; the final DMSO concentration was 0.1%. One hour later, […] of VEGF (30 ng/mL) in starvation media was added to all wells except those containing untreated controls; the final VEGF concentration was 6 ng/mL. Cellular proliferation was quantified 72 hours later by MTT dye reduction, at which time cells were exposed for 4 hours MTT (Promega Corp.). Dye reduction was stopped by addition of a stop solution (Promega Corp.) and absorbance at 595 nm was determined on a 96-well spectrophotometer plate reader.

inhibition at 0.05 µM [1] [%] | Ki [2] [nM] | Structure (SMILES) | IC50 [3] [nM]
> 10 | < 1 | Cc1cc(C)nc(NC(=O)Cc2ccc(Oc3ccnc4cc(C(=O)N5CCC5)sc34)cc2Cl)c1 [Example 49, 2-{4-[2-(Azetidine-1-carbonyl)-thieno[3,2-b]pyridin-7-yloxy]-2-chloro-phenyl}-N-(4,6-dimethyl-pyridin-2-yl)-acetamide] | 1 to 10
> 10 | 1 to 10 | O=C(Cc1ccc(Oc2ccnc3cc(C(=O)N4CCC4)sc23)cc1Cl)Nc1ccc(Cl)cn1 [Example 50, 2-{4-[2-(Azetidine-1-carbonyl)-thieno[3,2-b]pyridin-7-yloxy]-2-chloro-phenyl}-N-(5-chloro-pyridin-2-yl)-acetamide] | > 10
0 to 5 | 1 to 10 | O=C(Cc1ccc(Oc2ccnc3cc(C(=O)N4CCC4)sc23)cc1Cl)Nc1ccccn1 [Example 51, 2-{4-[2-(Azetidine-1-carbonyl)-thieno[3,2-b]pyridin-7-yloxy]-2-chloro-phenyl}-N-pyridin-2-yl-acetamide] | > 10
> 10 | 1 to 10 | Cc1cc(NC(=O)Cc2ccc(Oc3ccnc4cc(C(=O)N5CCC5)sc34)cc2Cl)no1 [Example 52, 2-{4-[2-(Azetidine-1-carbonyl)-thieno[3,2-b]pyridin-7-yloxy]-2-chloro-phenyl}-N-(5-methyl-isoxazol-3-yl)-acetamide] | > 10
0 to 5 | < 1 | Cc1cc(NC(=O)Cc2ccc(Oc3ccnc4cc(C(=O)N5CCC5)sc34)cc2Cl)on1 [Example 53, 2-{4-[2-(Azetidine-1-carbonyl)-thieno[3,2-b]pyridin-7-yloxy]-2-chloro-phenyl}-N-(3-methyl-isoxazol-5-yl)-acetamide] | 1 to 10
0 to 5 | < 1 | Cc1cc(NC(=O)Cc2ccc(Oc3ccnc4cc(C(=O)N5CCC5)sc34)cc2Cl)n[nH]1 [Example 55, 2-{4-[2-(Azetidine-1-carbonyl)-thieno[3,2-b]pyridin-7-yloxy]-2-chloro-phenyl}-N-(5-methyl-1H-pyrazol-3-yl)-acetamide] | < 1
0 to 5 | 1 to 10 | Cn1ccnc1-c1cc2nccc(Oc3ccc(CC(=O)Nc4ccccn4)c(Cl)c3)c2s1 [Example 60, 2-{2-Chloro-4-[2-(1-methyl-1H-imidazol-2-yl)-thieno[3,2-b]pyridin-7-yloxy]-phenyl}-N-pyridin-2-yl-acetamide] | > 10
0 to 5 | 1 to 10 | O=C(Cc1ccc(Oc2ccnc3cc(C(=O)N4CC[C@@H](O)C4)sc23)cc1Cl)Nc1ccccn1 [Example 61, 2-{2-Chloro-4-[2-((R)-3-hydroxy-pyrrolidine-1-carbonyl)-thieno[3,2-b]pyridin-7-yloxy]-phenyl}-N-pyridin-2-yl-acetamide] | > 10
0 to 5 | 1 to 10 | CO[C@@H]1CCN(C(=O)c2cc3nccc(Oc4ccc(CC(=O)Nc5ccccn5)c(Cl)c4)c3s2)C1 [Example 62, 2-{2-Chloro-4-[2-((R)-3-methoxy-pyrrolidine-1-carbonyl)-thieno[3,2-b]pyridin-7-yloxy]-phenyl}-N-pyridin-2-yl-acetamide] | > 10
0 to 5 | > 10 | C=C(C(=O)NC)c1ccc(Oc2ccnc3cc(C(=O)N4CC[C@@H](O)C4)sc23)cc1 [Example 66, 2-{4-[2-((R)-3-Hydroxy-pyrrolidine-1-carbonyl)-thieno[3,2-b]pyridin-7-yloxy]-phenyl}-N-methyl-acrylamide] | > 10
0 to 5 | > 10 | CNC(=O)Cc1ccc(Oc2ccnc3cc(C(=O)N4CC[C@@H](O)C4)sc23)cc1 [Example 69, 2-{4-[2-((R)-3-Hydroxy-pyrrolidine-1-carbonyl)-thieno[3,2-b]pyridin-7-yloxy]-phenyl}-N-methyl-acetamide] | > 10
0 to 5 | 1 to 10 | CNC(=O)C(O)c1ccc(Oc2ccnc3cc(C(=O)N4CCC4)sc23)cc1 (stereo not drawn) [Example 74, 2-{4-[2-(Azetidine-1-carbonyl)-thieno[3,2-b]pyridin-7-yloxy]-phenyl}-2-hydroxy-N-methyl-acetamide] | > 10
0 to 5 | 1 to 10 | CNC(=O)C(O)c1ccc(Oc2ccnc3cc(C(=O)N4CC[C@@H](O)C4)sc23)cc1 (stereo partly drawn) [Example 76, 2-Hydroxy-2-{4-[2-((R)-3-hydroxy-pyrrolidine-1-carbonyl)-thieno[3,2-b]pyridin-7-yloxy]-phenyl}-N-methyl-acetamide] | > 10
0 to 5 | 1 to 10 | COc1ccc2c(Oc3ccc(CC(=O)Nc4ccc(Cl)cn4)cc3)ccnc2c1 [Example 87, N-(5-Chloro-pyridin-2-yl)-2-[4-(7-methoxy-quinolin-4-yloxy)-phenyl]-acetamide] | > 10

Structure (SMILES) | inhibition at 0.05 µM [1] [%] | Ki [2] [nM] | IC50 [3] [nM]
CCCCNC(=O)Oc1ccc(Oc2ccnc3cc(C(=O)N4CCC4)sc23)cc1 [Example 86, butyl-carbamic acid 4-[2-(azetidine-1-carbonyl)-thieno[3,2-b]pyridin-7-yloxy]-phenyl ester] | 0 to 5 | 1 to 10 | < 1
